The record followed here is patent US9994558B2, “Multicyclic compounds and methods of using same” (Karyopharm Therapeutics Inc., priority 2013, dated 2018).

Holding throughout (type): cell-based
One assay relates to Z138 cells. Briefly: MTT cell proliferation assay, Z138 cells. The settings on record: Homo sapiens, Z-138, incubation approximately 64-72 hours. Here is the method:
(§1) The MTT cell proliferation assay was used to study the cytotoxic properties of the compounds. The assay was performed according to the method described by Roche Molecular Biochemicals, with minor modifications. The assay is based on the cleavage of the tetrazolium salt, MTT, in the presence of an electron-coupling reagent. The water-insoluble formazan salt produced must be solubilized in an additional step. Cells grown in a 96-well tissue culture plate were incubated with the MTT solution for approximately 4 hours. After this incubation period, a water-insoluble formazan dye formed. After solubilization, the formazan dye was quantitated using a scanning multi-well spectrophotometer (ELISA reader). […] The cells were seeded at 5,000-10,000 cells in each well of 96-well plate in 100 μL of fresh culture medium and were allowed to attach overnight. The stock solutions of the compounds were diluted in 100 μL cell culture medium to obtain eight concentrations of each test compound, ranging from 1 nM to 30 μM. […] All optical densities were measured at 490 nm using a Vmax Kinetic Microplate Reader (Molecular Devices). In most cases, the assay was performed in duplicate and the results were presented as a mean percent inhibition to the negative control±SE. The following formula was used to calculate the percent of inhibition. Inhibition (%)=(1−(ODo/OD))×100.
(§2) The compounds were tested against MS751, Z138 and 3T3 cells. The MS751 cell line is derived from a metastasis to lymph node of human cervix from a patient diagnosed with squameous cell carcinoma of the cervix. The […] cell line is a mature B-cell acute lymphoblastic leukemia cell line derived from a patient with chronic lymphocytic leukemia. 3T3 cells are standard fibroblast cells; they were originally isolated from Swiss mouse embryo tissue.

The test system of another assay is MS751 cells. Kind of assay: MTT cell proliferation assay, MS751 cells. The following applies: Homo sapiens, incubation approximately 64-72 hours. As for the experimental part: as §1, §2
For the next assay, the system named is 3T3 cells. Briefly: MTT cell proliferation assay, 3T3 cells. The following applies: Mus musculus, NIH3T3; 3T3 fibroblast cells; incubation approximately 64-72 hours. Here is the method:
as §1, §2

As to `CC(=O)c1ccc(-c2ccc(OCCNC(=O)/C=C/c3c(C)noc3C)c(Cl)c2)s1` [Compound 307, (E)-N-(2-(4-(5-acetylthiophen-2-yl)-2-chlorophenoxy)ethyl)-3-(3,5-dimethylisoxazol-4-yl)acrylamide], the IC50 in the assay on Z138 cells, with MS751 cells and in the assay with 3T3 cells was > 10 µM throughout.

`CC(=O)c1ccc(-c2ccccc2OCCNC(=O)/C=C/c2cccnc2)s1` [Compound 312, (E)-N-(2-(2-(5-acetylthiophen-2-yl)phenoxy)ethyl)-3-(pyridin-3-yl)acrylamide]: the half-maximal inhibitory concentration (IC50) with Z138 cells, in the assay on MS751 cells and in the assay with 3T3 cells was 0.1 to 5 µM in each case.

Consider `CC(C)(CNC(=O)/C=C/c1ccc(N)nc1)Oc1cc(Cl)cc(-c2ccc(C(=O)N3CCOCC3)cc2)c1` [Compound 347, (E)-3-(6-aminopyridin-3-yl)-N-(2-(5-chloro-4′-(morpholine-4-carbonyl)biphenyl-3-yloxy)-2-methylpropyl)acrylamide], for which the values for the IC50 with Z138 cells, with MS751 cells and in the assay with 3T3 cells were < 0.1 µM, 0.1 to 5 µM and > 10 µM, respectively.

Take `CC(=O)c1ccc(-c2cccc(OCCNC(=O)/C=C/c3cccnc3)c2Cl)s1` [Compound 302, (E)-N-(2-(3-(5-acetylthiophen-2-yl)-2-chlorophenoxy)ethyl)-3-(pyridin-3-yl) acrylamide]: the concentration for half-maximal inhibition (IC50) with Z138 cells is 0.1 to 5 µM; with MS751 cells, < 0.1 µM; in the assay on 3T3 cells, 0.1 to 5 µM.

Regarding `CC(=O)c1ccc(-c2ccc(OCCNC(=O)/C=C/c3cccnn3)c(Cl)c2)s1` [Compound 310, (E)-N-(2-(4-(5-acetylthiophen-2-yl)-2-chlorophenoxy)ethyl)-3-(pyridazin-3-yl)acrylamide], the IC50 with Z138 cells, in the assay on MS751 cells and with 3T3 cells was > 10 µM in each case.

Turning to `Nc1ccc(/C=C/C(=O)NCCCOc2ccc(-c3ccc(C(=O)N4CCOCC4)cc3)cc2Cl)cn1` [Compound 348, (E)-3-(6-aminopyridin-3-yl)-N-(3-(3-chloro-4′-(morpholine-4-carbonyl)biphenyl-4-yloxy)propyl)acrylamide], the IC50 is < 0.1 µM with Z138 cells, < 0.1 µM in the assay on MS751 cells and 0.1 to 5 µM in the assay on 3T3 cells.

On to `CC(=O)c1ccc(-c2ccc(OC(C)(C)CNC(=O)/C=C/c3cccnc3)c(Cl)c2)s1` [Compound 323, (E)-N-(2-(4-(5-acetylthiophen-2-yl)-2-chlorophenoxy)-2-methylpropyl)-3-(pyridin-3-yl)acrylamide], for which the half-inhibitory concentration (IC50) was 0.1 to 5 µM in the assay on Z138 cells, 5 to 10 µM with MS751 cells and > 10 µM in the assay on 3T3 cells.

Consider `Nc1ccc(/C=C/C(=O)NCCOc2cc(Cl)cc(-c3ccc(C(=O)N4CC(F)(F)C4)cc3)c2)cn1` [Compound 332, (E)-3-(6-aminopyridin-3-yl)-N-(2-(5-chloro-4′-(3,3-difluoroazetidine-1-carbonyl)biphenyl-3-yloxy)ethyl)acrylamide], for which the IC50 in the assay with Z138 cells was < 0.1 µM; in the assay with MS751 cells, < 0.1 µM; in the assay with 3T3 cells, 0.1 to 5 µM.

With `Nc1ccc(/C=C/C(=O)NCCOc2cc(Cl)cc(-c3ccc(C(=O)N4CCOCC4)cc3)c2)cn1` [Compound 344, (E)-3-(6-aminopyridin-3-yl)-N-(2-(5-chloro-4′-(morpholine-4-carbonyl)biphenyl-3-yloxy)ethyl)acrylamide], the IC50 in the assay with Z138 cells was < 0.1 µM; with MS751 cells, < 0.1 µM; with 3T3 cells, 0.1 to 5 µM.

As for `[2H]C([2H])(CNC(=O)/C=C/c1ccc(N)nc1)Oc1ccc(F)c(-c2ccc(C(=O)N3CCOCC3)cc2)c1` [Compound 343, (E)-3-(6-aminopyridin-3-yl)-N-(2,2-dideutero-2-(6-fluoro-4′-(morpholine-4-carbonyl)biphenyl-3-yloxy)ethyl)acrylamide], the concentration for half-maximal inhibition (IC50) with Z138 cells was 0.1 to 5 µM; with MS751 cells it was 0.1 to 5 µM; in the assay with 3T3 cells, > 10 µM.

Turning to `Cc1cc(-c2ccc(OCCNC(=O)/C=C/c3ccc(N)nc3)c(Cl)c2)ccc1C(=O)N1CCOCC1` [Compound 314, (E)-3-(6-aminopyridin-3-yl)-N-(2-(3-chloro-3′-methyl-4′-(morpholine-4-carbonyl)biphenyl-4-yloxy)ethyl)acrylamide], the IC50 with Z138 cells was < 0.1 µM; in the assay on MS751 cells it was < 0.1 µM; in the assay on 3T3 cells it was 0.1 to 5 µM.

Consider `CC(C)(CNC(=O)/C=C/c1ccc(N)nc1)COc1ccc(-c2ccc(C(=O)N3CCOCC3)cc2)cc1Cl` [Compound 350, (E)-3-(6-Aminopyridin-3-yl)-N-(3-((3-chloro-4′-(morpholine-4-carbonyl)-[1,1′-biphenyl]-4-yl)oxy)-2,2-dimethylpropyl)acrylamide], for which the IC50 with Z138 cells was < 0.1 µM; with MS751 cells, 0.1 to 5 µM; with 3T3 cells it was 0.1 to 5 µM.

With `Nc1ccc(/C=C/C(=O)NCCOc2ccc(-c3ccc(C(=O)N4CCC(F)(F)CC4)cn3)cc2C(F)(F)F)cn1` [Compound 355, (E)-3-(6-aminopyridin-3-yl)-N-(2-(4-(5-(4,4-difluoropiperidine-1-carbonyl)pyridin-2-yl)-2-(trifluoromethyl)phenoxy)ethyl)acrylamide], the IC50 is < 0.1 µM with Z138 cells, < 0.1 µM with MS751 cells and 0.1 to 5 µM in the assay on 3T3 cells.

For the molecule `Nc1ccc(/C=C/C(=O)NCC(F)(F)COc2ccc(-c3ccc(C(=O)N4CCOCC4)cc3)cc2Cl)cn1` [Compound 349, (E)-3-(6-aminopyridin-3-yl)-N-(3-(3-chloro-4′-(morpholine-4-carbonyl)biphenyl-4-yloxy)-2,2-difluoropropyl)acrylamide], the concentration for half-maximal inhibition (IC50) in the assay on Z138 cells was < 0.1 µM; in the assay on MS751 cells, < 0.1 µM; in the assay with 3T3 cells it was 0.1 to 5 µM.

Regarding `Nc1ccc(/C=C/C(=O)NCCOc2ccc(-c3cnc(C(=O)N4CCOCC4)nc3)cc2Cl)cn1` [Compound 328, (E)-3-(6-aminopyridin-3-yl)-N-(2-(2-chloro-4-(2-(morpholine-4-carbonyl)pyrimidin-5-yl)phenoxy)ethyl)acrylamide], the half-maximal inhibitory concentration (IC50) with Z138 cells was 0.1 to 5 µM; in the assay on MS751 cells, 0.1 to 5 µM; with 3T3 cells, > 10 µM.

Consider `[2H]C([2H])(CNC(=O)/C=C/c1ccc(N)nc1)Oc1ccc(-c2ccc(C(=O)N3CCOCC3)cc2)cc1Cl` [Compound 342, (E)-3-(6-aminopyridin-3-yl)-N-(2,2-dideutero-2-(3-chloro-4′-(morpholine-4-carbonyl)biphenyl-4-yloxy)ethyl)acrylamide], for which the figures for the IC50 in the assay with Z138 cells, with MS751 cells and in the assay on 3T3 cells were < 0.1 µM, < 0.1 µM and 0.1 to 5 µM, respectively.

Turning to `CC(=O)c1ccc(-c2ccc(OCCNC(=O)/C=C/c3cccnc3Cl)c(Cl)c2)s1` [Compound 304, (E)-N-(2-(4-(5-acetylthiophen-2-yl)-2-chlorophenoxy)ethyl)-3-(2-chloropyridin-3-yl) acrylamide], the results for the IC50 in the assay with Z138 cells, with MS751 cells and in the assay with 3T3 cells were > 10 µM, 5 to 10 µM and > 10 µM, respectively.

In the case of `Nc1ccc(/C=C/C(=O)NCCOc2ccc(-c3ccc(C(=O)N4CCNCC4)cc3)cc2Cl)cn1` [Compound 326, (E)-3-(6-aminopyridin-3-yl)-N-(2-(3-chloro-4′-(piperazine-1-carbonyl)biphenyl-4-yloxy)ethyl)acrylamide], the IC50 in the assay on Z138 cells was < 0.1 µM; in the assay with MS751 cells it was < 0.1 µM; in the assay on 3T3 cells, 0.1 to 5 µM.

On to `C=C(C)c1ccc(-c2ccc(OCCNC(=O)/C=C/c3cccnc3)c(Cl)c2)s1` [Compound 315, (E)-N-(2-(2-chloro-4-(5-(prop-1-en-2-yl)thiophen-2-yl)phenoxy)ethyl)-3-(pyridin-3-yl)acrylamide], for which the values for the concentration for half-maximal inhibition (IC50) with Z138 cells, in the assay on MS751 cells and with 3T3 cells were 0.1 to 5 µM, 5 to 10 µM and 5 to 10 µM, respectively.
